From publication PMC3541548 (Bioorganic & medicinal chemistry letters, 2012)
Where two headings read alike, the source gives them in different places.

How the values were obtained:
[1] = in vitro; details: human, microsomes
[2] = target: T1, Human sEH (Homo sapiens, UniProt P34913); type: biochemical; details: for fold lower potency against sEH: compared to 2-naphthalene analog 7-38
T1 sequence (P34913 1-555): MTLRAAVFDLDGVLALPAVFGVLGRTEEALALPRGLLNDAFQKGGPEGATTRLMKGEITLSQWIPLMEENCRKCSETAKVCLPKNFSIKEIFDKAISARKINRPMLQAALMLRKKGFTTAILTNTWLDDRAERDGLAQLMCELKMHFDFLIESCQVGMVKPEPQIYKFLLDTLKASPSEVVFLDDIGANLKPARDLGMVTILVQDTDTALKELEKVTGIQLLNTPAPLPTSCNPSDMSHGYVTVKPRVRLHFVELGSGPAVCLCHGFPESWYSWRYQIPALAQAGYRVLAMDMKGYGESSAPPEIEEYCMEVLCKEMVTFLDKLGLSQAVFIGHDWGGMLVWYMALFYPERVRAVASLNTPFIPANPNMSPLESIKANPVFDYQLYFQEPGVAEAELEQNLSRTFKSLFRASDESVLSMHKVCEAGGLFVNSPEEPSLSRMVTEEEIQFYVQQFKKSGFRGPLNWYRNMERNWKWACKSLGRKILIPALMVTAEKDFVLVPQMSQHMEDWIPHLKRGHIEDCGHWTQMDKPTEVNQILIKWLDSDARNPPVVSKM

[3] = compared to phenyl compound 7-12

SMILES: Cc1ccc(S(=O)(=O)N2CCC(C(=O)NC3CCCC3)CC2)c(C)c1 [Compound 7-3]
- CLint scaled at 1.5 h [1]: 90 mL/min/kg

SMILES: Cc1ccc(S(=O)(=O)N2CCC(C(=O)Nc3ccc(Cl)c(C(F)(F)F)c3)CC2)c(C)c1 [Compound 7-41]
- fold lower potency against sEH [2]: 50 fold

SMILES: Cc1ccc(S(=O)(=O)N2CCC(C(=O)Nc3ccc(OC(F)(F)F)cc3)CC2)c(C)c1 [Compound 7-12]
- fold drop in potency against the human sEH ([2]; compared to cycloalkyl lead compound 2): 15 fold

SMILES: Cc1ccc(S(=O)(=O)N2CCC(C(=O)NC3CC3)CC2)c(C)c1 [Compound 7-24]
- CLint scaled at 1.5 h [1]: 7 mL/min/kg
- in vitro metabolic stability in human liver microsomes (in words): intermediate metabolic profiles

SMILES: Cc1ccc(S(=O)(=O)N2CCC(C(=O)Nc3ccc4c(c3)OCO4)CC2)c(C)c1 [Compound 7-23]
- fold increase in potency (lower IC50) [2, 3]: 4 fold
- CLint scaled at 1.5 h [1]: 28 mL/min/kg
- in vitro metabolic stability in human liver microsomes (in words): intermediate metabolic profiles

SMILES: Cc1ccc(S(=O)(=O)N2CCC(C(=O)Nc3cccc4cccnc34)CC2)c(C)c1 [Compound 7-20]
- CLint scaled at 1.5 h [1]: 120 mL/min/kg

SMILES: Cc1ccc(S(=O)(=O)N2CCC(C(=O)Nc3ccc4ccccc4c3)CC2)c(C)c1 [Compound 7-42]
- fold lower potency against sEH [2]: 180 fold
- CLint scaled at 1.5 h [1]: 140 mL/min/kg

SMILES: COC(=O)c1ccc(NC(=O)C2CCN(S(=O)(=O)c3ccc(C)cc3C)CC2)cc1 [Compound 7-11]
- CLint scaled at 1.5 h [1]: 340 mL/min/kg

SMILES: Cc1ccc(S(=O)(=O)N2CCC(C(=O)Nc3ccc(N4CCOCC4)cc3)CC2)c(C)c1 [Compound 7-14]
- fold decrease in potency [2, 3]: 10 fold

SMILES: Cc1ccc(S(=O)(=O)N2CCC(C(=O)NC34CC5CC(CC(C5)C3)C4)CC2)c(C)c1 [Compound 7-6]
- CLint scaled at 1.5 h [1]: 90 mL/min/kg

SMILES: Cc1ccc(S(=O)(=O)N2CCC(C(=O)Nc3ccc(C(C)C)cc3)CC2)c(C)c1 [Compound 7-37]
- fold increase in potency (lower IC50) [2]: 3 fold
- CLint scaled at 1.5 h [1]: 50 mL/min/kg

SMILES: Cc1ccc(S(=O)(=O)N2CCC(C(=O)Nc3ccc(Br)cc3)CC2)c(C)c1 [Compound 7-40]
- fold lower potency against sEH [2]: 30 fold

SMILES: Cc1ccc(S(=O)(=O)N2CCC(C(=O)Nc3ccc(F)cc3)CC2)c(C)c1 [Compound 7-39]
- fold lower potency against sEH [2]: 5 fold

SMILES: Cc1ccc(S(=O)(=O)N2CCC(C(=O)Nc3ccc([N+](=O)[O-])cc3)CC2)c(C)c1 [Compound 7-35]
- fold increase in potency (lower IC50) [2, 3]: 2 fold

SMILES: Cc1ccc(S(=O)(=O)N2CCC(C(=O)Nc3ccc4cc(C(=O)O)ccc4c3)CC2)c(C)c1 [Compound 7-45]
- CLint scaled at 1.5 h [1]: 35 mL/min/kg

SMILES: Cc1ccc(S(=O)(=O)N2CCC(C(=O)Nc3ccc(S(=O)(=O)C(F)(F)F)cc3)CC2)c(C)c1 [Compound 7-38]
- CLint scaled at 1.5 h [1]: 35 mL/min/kg

SMILES: Cc1ccc(S(=O)(=O)N2CCC(C(=O)Nc3cccc4cnccc34)CC2)c(C)c1 [Compound 7-44]
- fold lower potency against sEH [2]: 15 fold
- CLint scaled at 1.5 h [1]: 5.6 mL/min/kg

SMILES: Cc1ccc(S(=O)(=O)N2CCC(C(=O)Nc3ccccc3O)CC2)c(C)c1 [Compound 7-9]
- CLint scaled at 1.5 h [1]: 520 mL/min/kg

SMILES: Cc1ccc(S(=O)(=O)N2CCC(C(=O)Nc3cccc(C(F)(F)F)c3)CC2)c(C)c1 [Compound 7-16]
- fold decrease in potency [2, 3]: 30 fold

SMILES: Cc1ccc(S(=O)(=O)N2CCC(C(=O)Nc3ccc(Cl)c(Cl)c3)CC2)c(C)c1 [Compound 7-19]
- fold decrease in potency [2, 3]: 2 fold
